Data reported in patent US10689354B2, “Aminoazole derivative” (Teijin Pharma Limited, priority 2015, dated 2020).

How the values were obtained:
human androgen receptor = molecular target: T1, human androgen receptor (Homo sapiens, UniProt P10275); test: Reporter assay of an androgen receptor responsive sequence (luciferase, transiently transfected HEK293 cells); type: cell-based; conditions: 24 hours incubation, relative to activity of 100 nM DHT, read-out: AR transcriptive activity (pEC50) (converted)
T1 construct: expressed in transfected cells; host or cells: HEK293
T1 sequence (P10275 1-920): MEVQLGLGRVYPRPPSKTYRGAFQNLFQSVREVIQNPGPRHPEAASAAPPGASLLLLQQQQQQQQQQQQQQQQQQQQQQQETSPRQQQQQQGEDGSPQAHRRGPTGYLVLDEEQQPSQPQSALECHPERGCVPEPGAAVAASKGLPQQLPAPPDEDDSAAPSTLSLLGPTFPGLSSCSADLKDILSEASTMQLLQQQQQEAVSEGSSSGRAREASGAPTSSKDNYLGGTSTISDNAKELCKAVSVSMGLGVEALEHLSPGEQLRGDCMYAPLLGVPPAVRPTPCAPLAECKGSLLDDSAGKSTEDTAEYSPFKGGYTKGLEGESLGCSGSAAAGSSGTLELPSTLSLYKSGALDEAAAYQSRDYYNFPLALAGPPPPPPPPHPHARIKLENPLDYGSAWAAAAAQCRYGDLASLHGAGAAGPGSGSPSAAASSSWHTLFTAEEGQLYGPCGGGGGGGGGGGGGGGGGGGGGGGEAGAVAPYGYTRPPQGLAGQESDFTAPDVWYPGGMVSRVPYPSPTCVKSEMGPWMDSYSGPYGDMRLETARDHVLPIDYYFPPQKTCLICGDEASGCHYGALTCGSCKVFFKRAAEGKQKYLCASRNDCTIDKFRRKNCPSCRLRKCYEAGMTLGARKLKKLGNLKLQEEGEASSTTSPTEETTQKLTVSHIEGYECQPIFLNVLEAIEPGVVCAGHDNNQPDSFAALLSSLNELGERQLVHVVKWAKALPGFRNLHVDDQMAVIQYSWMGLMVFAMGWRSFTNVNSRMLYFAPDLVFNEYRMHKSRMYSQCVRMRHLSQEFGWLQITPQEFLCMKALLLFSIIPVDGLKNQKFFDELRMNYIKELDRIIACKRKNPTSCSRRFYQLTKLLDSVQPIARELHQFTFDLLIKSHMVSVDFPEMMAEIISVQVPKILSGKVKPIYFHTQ
Procedure, shortened: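 HEK293 cells transiently transfected for 3 h with ARE-firefly luciferase, full-length human AR and TK-Renilla plasmids, then exposed to compound for 24 h at 37 °C in 5% charcoal-treated FBS/DMEM. Dual-Glo luminescence read; pEC50 from 4-parameter fit relative to 100 nM DHT.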

[1] = molecular target: T2, androgen receptor (AR-LBD) (Rattus norvegicus, UniProt P15207); test: Evaluation of androgen receptor affinity (PolarScreen Androgen Receptor Competitor Assay Kit, Red; fluorescence polarization); conditions: 22° C. for 5 hours, relative to binding rate of 1 μM DHT, read-out: AR affinity (pEC50) (converted)
T2 construct: 5 μL of 2×AR-LBD/Fluoromone AL Red Complex contained in the kit; purchased Invitrogen
T2 sequence (P15207 651-882 limits assumed): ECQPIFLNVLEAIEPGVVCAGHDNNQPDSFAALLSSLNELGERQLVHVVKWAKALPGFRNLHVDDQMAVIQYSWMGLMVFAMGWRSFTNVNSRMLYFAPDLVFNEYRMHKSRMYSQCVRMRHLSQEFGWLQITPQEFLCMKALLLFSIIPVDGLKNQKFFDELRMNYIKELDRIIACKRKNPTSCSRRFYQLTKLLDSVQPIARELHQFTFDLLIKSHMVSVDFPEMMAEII
Procedure, shortened: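 Compounds were mixed with AR-LBD/Fluoromone AL Red complex and incubated 5 h at 22° C before fluorescence polarization was read. Binding was expressed relative to 1 μM dihydrotestosterone, and pEC50 (concentration giving 50% of that binding) came from a 4-parameter fit.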

Compound | EC50 (human androgen receptor) | EC50 [1]
COc1cccc(CN(c2ccc(C#N)cc2)c2nc(C(=O)NS(C)(=O)=O)c(C)s2)n1 [Compound 491, 2-[4-cyano-N-[(6-methox-2-pyridyl)methyl]anilino]-5-methyl-N-methylsulfonyl-thiazole-4-carboxamide] | 316 nM | 100 nM
Cc1sc(N(Cc2ncccc2O)c2ccc(C#N)cc2)nc1C(=O)NS(C)(=O)=O [Compound 492, 2-[4-cyano-N-[(3-hydroxyl-pyridyl)methyl]anilino]-5-methyl-N-methylsulfonyl-thiazole-4-carboxamide] | 1260 nM | 794 nM
Cc1sc(N(Cc2cccc(=O)[nH]2)c2ccc(C#N)cc2)nc1C(=O)NS(C)(=O)=O [Compound 493, 2-[4-cyano-N-[(6-oxo-1H-pyridin-2-yl)methyl]anilino]-5-methyl-N-methylsulfonyl-thiazole-4-carboxamide] | > 10000 nM | > 2000 nM
Cc1sc(N(Cc2cnc(-c3ccc(F)cc3)s2)c2ccc(C#N)cc2)nc1C(=O)NS(C)(=O)=O [Compound 494, 2-[4-cyano-N-[[2-(4-fluorophenyl)thiazol-5-yl]methyl]anilino]-5-methyl-N-methylsulfonyl-thiazole-4-carboxamide] | 1000 nM | 31.6 nM
Cc1sc(N(Cc2cnc(-c3ccccc3F)s2)c2ccc(C#N)cc2)nc1C(=O)NS(C)(=O)=O [Compound 495, 2-[4-cyano-N-[[2-(2-fluorophenyl)thiazol-5-yl]methyl]anilino]-5-methyl-N-methylsulfonyl-thiazole-4-carboxamide] | > 10000 nM | 39.8 nM
Cc1sc(N(Cc2ccc(Br)nc2)c2ccc(C#N)cc2)nc1C(=O)NS(C)(=O)=O [Compound 496, 2-[N-[(6-bromo-3-pyridyl)methyl]-4-cyano-anilino]-5-methyl-N-methylsulfonyl-thiazole-4-carboxamide] | 158 nM | 126 nM
Cc1sc(N(Cc2nc3ccccc3s2)c2ccc(C#N)cc2)nc1C(=O)NS(C)(=O)=O [Compound 497, 2-[N-(1,3-benzothiazol-2-ylmethyl)-4-cyano-anilino]-5-methyl-N-methylsulfonyl-thiazole-4-carboxamide] | 200 nM | 126 nM
Cc1sc(N(Cc2ccc(C(F)(F)F)cc2F)c2ccc(C#N)cc2)nc1C(=O)NS(C)(=O)=O [Compound 498, 2-[4-cyano-N-[[2-fluoro-4-(trifluoromethyl)phenyl]methyl]anilino]-5-methyl-N-methylsulfonyl-thiazole-4-carboxamide] | 100 nM | 31.6 nM
COCCCS(=O)(=O)NC(=O)c1nc(N(Cc2ccc(F)cc2)c2ccc(C#N)cc2)sc1C [Compound 499, 2-[4-cyano-N-[(4-fluorophenyl)methyl]anilino]-N-(3-methoxypropylsulfonyl)-5-methyl-thiazole-4-carboxamide] | 158 nM | 39.8 nM
Cc1sc(N(Cc2ccc(OC(F)(F)F)cc2)c2ccc(C#N)cc2)nc1C(=O)NS(=O)(=O)Cc1ccncc1 [Compound 500, 2-[4-cyano-N-[[4-(trifluoromethoxy)phenyl]methyl]anilino]-5-methyl-N-(4-pyridylmethylsulfonyl)thiazole-4-carboxamide] | 126 nM | 20 nM
Cc1sc(N(Cc2ccc(F)cc2)c2ccc(C#N)cc2)nc1C(=O)NS(=O)(=O)Cc1ccncc1 [Compound 501, 2-[4-cyano-N-[(4-fluorophenyl)methyl]anilino]-5-methyl-N-(4-pyridylmethylsulfonyl)thiazole-4-carboxamide] | 63.1 nM | 39.8 nM
COc1cccc(CN(CCc2ccc(Cl)cc2)c2nc(C(=O)NS(C)(=O)=O)c(C)s2)n1 [Compound 502, 2-[2-(4-chlorophenyl)ethyl-[(6-methoxy-2-pyridyl)methyl]amino]-5-methyl-N-methylsulfonyl-thiazole-4-carboxamide] | 794 nM | 39.8 nM
